Results from patent US7381744B1, “Method of treating osteoporosis comprising vacuolar-type (H+)-ATPase-inhibiting compounds” (The United States of America as represented by the …, priority 1999, dated 2008).

Tests used:
[1] = test system: mammalian vacuolar-type (H+)-ATPase (from chromaffin granule membranes); assay: mammalian vacuolar-type (H+)-ATPase inhibition, side-by-side test; assay type: biochemical; settings: chromaffin granule membranes; side-by-side test
From the text: (§1) The inhibitory data were obtained using the same procedures and biological preparations described in Bowman et al., Proc. Natl. Acad. Sci. USA, 85, 7972-7976 (November 1988).

[2] = test system: fungal vacuolar-type (H+)-ATPase (from Neurospora crassa); assay: fungal vacuolar-type (H+)-ATPase inhibition, side-by-side test; assay type: biochemical
From the text: as §1

## C/C=C/[C@H]1O[C@@](O)([C@@H](C)[C@H](O)[C@H](C)[C@H]2OC(=O)/C(OC)=C/C(C)=C/[C@@H](C)[C@@H](O)[C@@H](CC)[C@@H](O)[C@H](C)C/C(C)=C/C=C/[C@@H]2OC)C[C@@H](O[C@H]2C[C@@H](O)[C@H](OC(N)=O)[C@@H](C)O2)[C@@H]1C [concanamycin A, reference compound]
[1]
  inhibitory activity against mammalian vacuolar-type (H+)-ATPase: potent inhibitor
[2]
  inhibitory activity against fungal vacuolar-type (H+)-ATPase: potent inhibitor
